From patent US20230406850A1, “CRYSTALLINE FORM OF HETEROCYCLIC COMPOUND, PREPARATION METHOD THEREFOR AND APPLICATION THEREOF” (WUHAN LL SCIENCE AND TECHNOLOGY DEVELOPMENT CO., LTD., priority 2020, published 2023)

Experiments:
[1] = test system: Dunkin Hartley guinea pigs, ATP-citric acid induced cough; test: ATP-citric acid cough model; assay type: in vivo, guinea pig
Experimental: Male Dunkin Hartley guinea pigs (300-400 g) were placed in a whole-body volume scanning box for 3 to 5 minutes, and then subjected to ATP atomization for 2 minutes, with an interval of 3 minutes, followed by citric acid atomization for 5 minutes, and all atomization rates were about 300 μL/min. From citrate acid atomization, cough times and cough latency of animals within 10 min were recorded. During the 10-minute observation period, manual counting of coughs was required, and the number of coughs was judged according to the guinea pig's coughing posture, such as abdominal twitching, mouth opening, head down hooking, etc., as well as the sound of coughing, the number of coughs in the first 10 minutes were recorded, and the cough incubation period of guinea pigs was also recorded.
Animals were divided into vehicle group, dextromethorphan (63 mg/kg) positive group, AF-219 (30 mg/kg) positive group and compound 172 (3, 10, 30 mg/kg) administration group of Embodiment. All compounds were administered orally, except dextromethorphan, which was administered 40 minutes before ATP-citric acid exposure, and the rest compounds were […].

[2] = test system: SD rats; test: Taste disorder test by double bottle method; assay type: in vivo, rat; settings: for Quinine/tap water * 100%: single intraperitoneal injection, 15 minutes
Source text: SPF male SD rats (6-8 weeks) received 3 days of adaptive drinking water training immediately after storage, and the specific training content was that animals were kept in a single cage, and two bottles of water (both common drinking water) were placed in each cage, and during the adaptive training, water treatment was forbidden all night (the drinking water bottle was removed), and drinking water was given again at 8:30 am to 5:30 pm, and then this cycle lasted for 3 days, and the two bottles of water were changed every day, and during the whole adaptive training period, animals were ate freely. All animal water bottles were removed 20 hours before the formal experiment, and water was banned until the time of the experiment. During the formal experiment, all animals were randomly divided into groups, and the test compound or vehicle was given before the water supply was renewed, and the drug was given by single intraperitoneal injection, and the administration time was determined according to the Tmax of the test compound. Then, the animals were placed in a single cage, and given two bottles of drinking water, one bottle of ordinary drinking water and one bottle of 0.3 mM tonic water, and the water consumption of animals was observed within 15 minutes, and the quinine water consumption/ordinary water consumption was statistically analyzed, with positive compound 2 as the positive control of taste disorder.

[3] = biological target: T1, hP2X2/3 (heterodimeric receptors formed by human purinergic P2X receptor subtypes 2 and 3) (Homo sapiens, UniProt P56373+Q9UBL9); test: FLIPR intracellular calcium assay, hP2X2/3 in HEK293 cells (selectivity); assay type: cell-based
T1 construct: expressed in transfected cells
T1 sequence (P56373 1-397): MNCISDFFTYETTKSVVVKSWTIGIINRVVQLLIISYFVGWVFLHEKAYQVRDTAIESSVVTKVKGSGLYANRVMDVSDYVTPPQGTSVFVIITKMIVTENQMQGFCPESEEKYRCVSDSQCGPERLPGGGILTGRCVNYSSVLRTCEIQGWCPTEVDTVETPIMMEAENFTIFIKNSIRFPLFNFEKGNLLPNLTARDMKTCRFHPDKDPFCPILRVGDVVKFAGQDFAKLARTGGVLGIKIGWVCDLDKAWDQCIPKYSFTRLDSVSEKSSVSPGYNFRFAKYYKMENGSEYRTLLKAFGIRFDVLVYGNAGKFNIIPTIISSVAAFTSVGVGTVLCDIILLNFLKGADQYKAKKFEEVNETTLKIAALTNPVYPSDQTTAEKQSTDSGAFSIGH
T1 sequence (Q9UBL9 1-471): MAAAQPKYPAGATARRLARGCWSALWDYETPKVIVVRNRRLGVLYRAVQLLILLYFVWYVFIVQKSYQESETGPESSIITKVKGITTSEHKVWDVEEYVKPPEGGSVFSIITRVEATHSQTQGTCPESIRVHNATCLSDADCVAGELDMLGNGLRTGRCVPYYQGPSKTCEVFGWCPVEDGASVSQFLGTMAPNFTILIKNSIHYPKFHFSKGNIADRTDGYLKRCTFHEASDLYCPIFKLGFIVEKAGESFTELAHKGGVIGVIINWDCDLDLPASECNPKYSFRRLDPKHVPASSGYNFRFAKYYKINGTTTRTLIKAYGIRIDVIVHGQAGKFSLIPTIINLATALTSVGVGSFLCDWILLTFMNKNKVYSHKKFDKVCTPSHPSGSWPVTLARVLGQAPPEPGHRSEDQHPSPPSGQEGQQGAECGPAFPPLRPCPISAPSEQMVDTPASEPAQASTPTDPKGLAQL
Experimental: 18-24 hours before the FLIPR experiment, cells were seeded into 96 wells (25000 cells/well) ata density of 250000 cells/mL and incubated overnight in a cell culture incubator. […] 75 μL 1 mM Fluo-4 AM fluorescent dye (Thermo, F14202) was added to each well, and the dye load was incubated for 1.0 hour at 37° C. Then, the 96-well plate was washed once with buffer, and 50 μL of buffer containing test compound or vehicle was added to each well, and it was incubated at room temperature for 30 minutes. […] Then agonist (BZ-ATP (Sigma, B6396) at a final concentration of 5 μM) or vehicle (ultrapure water) was added at 50 μL/well, the fluorescence value was measured at 1-second intervals for 2 minutes, and finally the output fluorescence was counted analysis.

[4] = test system: Dunkin Hartley guinea pigs, citric acid induced cough; test: Simple citric acid cough model; assay type: in vivo, guinea pig; settings: 30 mg/kg
Experimental: Male Dunkin Hartley guinea pigs (300-350 g) were placed in the animal atomization box, the door of the atomization box was closed, and the ultrasonic atomizer (Guangdong Yuehua) was opened at the same time, at the maximum atomization amount (about 2 mL/min) 17.5% citric acid gas was filled with the atomization box, which was continuously atomized for 20 seconds, and the cough performance of the animals was continuously observed within 10 min after the atomization started. During the 10-minute observation period, manual counting of coughs was required, and the number of coughs was judged according to the guinea pig's coughing posture, such as abdominal twitching, mouth opening, head down hooking, etc., as well as the sound of coughing, the number of coughs in the first 5 minutes and the number of coughs in the first 10 minutes were recorded, and the cough incubation period of guinea pigs was also recorded, that is, the time from citric acid induction to the first cough as well as the sound of coughing.

[5] = biological target: T2, hP2X3 (human purinergic P2X receptor subtype 3) (Homo sapiens, UniProt P56373); test: FLIPR intracellular calcium assay, hP2X3 in HEK293 cells; assay type: cell-based; settings: agonist BZ-ATP 2.5 μM, read-out: P2X3 IC50
T2 construct: expressed in transfected cells
T2 sequence (P56373 1-397): T1 sequence (P56373 1-397)
Experimental: 18-24 hours before the FLIPR experiment, cells were seeded into 384 wells (10,000 cells/well) at a density of 400,000 cells/mL and incubated overnight in a cell culture incubator. […] 10 μL of test compound (dissolved at 10 mM in DMSO and serially diluted with buffer) or vehicle was then added to each well and allowed to equilibrate for 30 min at room temperature.

## COC(=O)N1CCO[C@@H](Cc2c(-c3c(F)cc(S(N)(=O)=O)cc3F)nc3cc(Cl)ccn23)C1 [Compound 172, methyl (S)-2-((7-chloro-2-(2,6-difluoro-4-sulfamoylphenyl)imidazo[1,2-a]pyridin-3-yl)methyl)morpholine-4-carboxylate]
[1]; 3 mg/kg oral
  Cough suppression rate vs Vehicle: 30.80%
[1]; 10 mg/kg oral
  Cough suppression rate vs Vehicle: 51.20%
[1]; 30 mg/kg oral
  Cough suppression rate vs Vehicle: 52.80%
[1]; guinea pig, in vivo
  effect on number of coughs compared with the vehicle group, in words: significantly reduce the number of coughs
[2]; 5 mg/kg
  Quinine/tap water * 100%: 7.05%
[2]; 10 mg/kg
  Quinine/tap water * 100%: 7.41%
[2]; 20 mg/kg
  Quinine/tap water * 100%: 8.66%
[2]; 5, 10 and 20 mg/kg
  effect on quinine/water ratio in words: no obvious effect on the quinine/water ratio of rats
[3]; HEK293 cells, agonist BZ-ATP 5 μM
  IC50: > 60000 nM
[3]; P2X2/3 versus P2X3
  Selectivity multiple: >85714
[4]
  efficacy in words: comparable to the efficacy of positive compound
[5]
  IC50: 0.7 nM
